In the NIST ThermoML archive (doi:10.1016/j.jct.2016.12.012):
Several values for one entry are separate records, joined by “and”; a condition that tells them apart may be missing. Equal values may be shown once.

Legend:
[1] = for Normal melting temperature: DTA
[2] = Molar enthalpy of transition or fusion; conditions: DSC

CC(=O)Oc1ccccc1C(C)=O [2'-acetoxyacetophenone]
[1]
Conditions	vapor or sublimation pressure
298.01 K, Crystal, Calculated from knudsen effusion weight loss	6.1e-05 kPa and 6e-05 kPa
299.4 K, Crystal, Calculated from knudsen effusion weight loss	7.4e-05 kPa
301.22 K, Crystal, Calculated from knudsen effusion weight loss	9.7e-05 kPa and 9.6e-05 kPa
303.17 K, Crystal, Calculated from knudsen effusion weight loss	0.000121 kPa and 0.000122 kPa and 0.000124 kPa
305.39 K, Crystal, Calculated from knudsen effusion weight loss	0.000164 kPa and 0.000166 kPa
307.2 K, Crystal, Calculated from knudsen effusion weight loss	0.000214 kPa and 0.000217 kPa and 0.000215 kPa
309.14 K, Crystal, Calculated from knudsen effusion weight loss	0.000275 kPa and 0.000277 kPa
311.34 K, Crystal, Calculated from knudsen effusion weight loss	0.000362 kPa and 0.000361 kPa and 0.000365 kPa
313 K, Crystal, Closed cell (Static) method	0.00046 kPa
313.21 K, Crystal, Calculated from knudsen effusion weight loss	0.000467 kPa and 0.000465 kPa and 0.000469 kPa
315.01 K, Crystal, Closed cell (Static) method	0.0006 kPa
315.13 K, Crystal, Calculated from knudsen effusion weight loss	0.00059 kPa and 0.000588 kPa and 0.000593 kPa
316.99 K, Crystal, Closed cell (Static) method	0.00076 kPa
317.31 K, Crystal, Calculated from knudsen effusion weight loss	0.000786 kPa and 0.000778 kPa
318.98 K, Crystal, Closed cell (Static) method	0.00097 kPa
319.28 K, Crystal, Calculated from knudsen effusion weight loss	0.00102 kPa and 0.001014 kPa and 0.001001 kPa
320.96 K, Crystal, Closed cell (Static) method	0.00123 kPa
321.27 K, Crystal, Calculated from knudsen effusion weight loss	0.001305 kPa and 0.001292 kPa and 0.001286 kPa
322.97 K, Crystal, Closed cell (Static) method	0.00156 kPa
324.96 K, Crystal, Closed cell (Static) method	0.00199 kPa
326.91 K, Crystal, Closed cell (Static) method	0.0025 kPa
328.91 K, Crystal, Closed cell (Static) method	0.00314 kPa
330.92 K, Crystal, Closed cell (Static) method	0.00397 kPa
332.88 K, Crystal, Closed cell (Static) method	0.00495 kPa
334.86 K, Crystal, Closed cell (Static) method	0.00619 kPa
336.81 K, Crystal, Closed cell (Static) method	0.00762 kPa
338.84 K, Crystal, Closed cell (Static) method	0.00958 kPa
340.8 K, Crystal, Closed cell (Static) method	0.01175 kPa
342.74 K, Crystal, Closed cell (Static) method	0.01458 kPa
344.72 K, Crystal, Closed cell (Static) method	0.01786 kPa
344.73 K, Metastable liquid, Closed cell (Static) method	0.03005 kPa
346.7 K, Crystal, Closed cell (Static) method	0.02195 kPa
346.73 K, Metastable liquid, Closed cell (Static) method	0.03465 kPa
348.65 K, Metastable liquid, Closed cell (Static) method	0.03975 kPa
348.68 K, Crystal, Closed cell (Static) method	0.02665 kPa
350.65 K, Metastable liquid, Closed cell (Static) method	0.04556 kPa
350.69 K, Crystal, Closed cell (Static) method	0.0325 kPa
352.61 K, Crystal, Closed cell (Static) method	0.0395 kPa
352.64 K, Metastable liquid, Closed cell (Static) method	0.05208 kPa
354.59 K, Metastable liquid, Closed cell (Static) method	0.05928 kPa
354.61 K, Crystal, Closed cell (Static) method	0.04802 kPa
356.54 K, Crystal, Closed cell (Static) method	0.05812 kPa
356.54 K, Metastable liquid, Closed cell (Static) method	0.06775 kPa
358.51 K, Metastable liquid, Closed cell (Static) method	0.07683 kPa
360.53 K, Metastable liquid, Closed cell (Static) method	0.08729 kPa
362.46 K, Metastable liquid, Closed cell (Static) method	0.0988 kPa
364.45 K, Closed cell (Static) method, Liquid	0.1124 kPa
366.49 K, Closed cell (Static) method, Liquid	0.127 kPa
368.43 K, Closed cell (Static) method, Liquid	0.1443 kPa
370.48 K, Closed cell (Static) method, Liquid	0.162 kPa
372.37 K, Closed cell (Static) method, Liquid	0.1819 kPa
374.39 K, Closed cell (Static) method, Liquid	0.205 kPa
376.34 K, Closed cell (Static) method, Liquid	0.2324 kPa
378.28 K, Closed cell (Static) method, Liquid	0.2588 kPa
380.23 K, Closed cell (Static) method, Liquid	0.2847 kPa
382.24 K, Closed cell (Static) method, Liquid	0.3195 kPa
384.15 K, Closed cell (Static) method, Liquid	0.3609 kPa
386.19 K, Closed cell (Static) method, Liquid	0.3984 kPa
388.15 K, Closed cell (Static) method, Liquid	0.4446 kPa
390.12 K, Closed cell (Static) method, Liquid	0.4936 kPa
392.04 K, Closed cell (Static) method, Liquid	0.5463 kPa
394.07 K, Closed cell (Static) method, Liquid	0.6059 kPa
395.98 K, Closed cell (Static) method, Liquid	0.6687 kPa
398 K, Closed cell (Static) method, Liquid	0.7392 kPa

Crystal
Conditions	Molar enthalpy of transition or fusion [kcal/mol]	Normal melting temperature [°C]
[1]	–	88.7
[2]	7.72	–

CC(=O)Oc1cccc(C(C)=O)c1 [3-acetoxyacetophenone]
[1], Crystal 2, Calculated from knudsen effusion weight loss
Conditions	vapor or sublimation pressure
297.65 K	0.000123 kPa and 0.000124 kPa
299.16 K	0.000153 kPa and 0.000152 kPa
300.09 K	0.000169 kPa and 0.000167 kPa and 0.000168 kPa
301.23 K	0.000194 kPa and 0.000196 kPa
302.21 K	0.00023 kPa
303.25 K	0.000262 kPa and 0.000259 kPa
304.24 K	0.000293 kPa and 0.00029 kPa
305.23 K	0.000337 kPa and 0.00034 kPa and 0.000334 kPa
306.24 K	0.000387 kPa and 0.000383 kPa and 0.000389 kPa
307.26 K	0.000436 kPa and 0.000441 kPa and 0.000434 kPa

[1]
Conditions	vapor or sublimation pressure [kPa]
305.09 K, Metastable liquid, Closed cell (Static) method	0.00046
307.07 K, Metastable liquid, Closed cell (Static) method	0.00055
309.03 K, Metastable liquid, Closed cell (Static) method	0.00067
311.04 K, Metastable liquid, Closed cell (Static) method	0.00082
312.98 K, Metastable liquid, Closed cell (Static) method	0.001
315.01 K, Closed cell (Static) method, Liquid	0.00122
317.02 K, Closed cell (Static) method, Liquid	0.00147
319.06 K, Closed cell (Static) method, Liquid	0.00173
320.99 K, Closed cell (Static) method, Liquid	0.00206
323.04 K, Closed cell (Static) method, Liquid	0.00247
324.96 K, Closed cell (Static) method, Liquid	0.00291
326.99 K, Closed cell (Static) method, Liquid	0.00346
328.93 K, Closed cell (Static) method, Liquid	0.0041
330.94 K, Closed cell (Static) method, Liquid	0.00489
332.92 K, Closed cell (Static) method, Liquid	0.00565
334.91 K, Closed cell (Static) method, Liquid	0.00677
336.87 K, Closed cell (Static) method, Liquid	0.00798
338.84 K, Closed cell (Static) method, Liquid	0.00935
340.83 K, Closed cell (Static) method, Liquid	0.01079
342.8 K, Closed cell (Static) method, Liquid	0.01271
344.79 K, Closed cell (Static) method, Liquid	0.01475
346.92 K, Closed cell (Static) method, Liquid	0.01728
348.74 K, Closed cell (Static) method, Liquid	0.01981
350.69 K, Closed cell (Static) method, Liquid	0.02301
352.67 K, Closed cell (Static) method, Liquid	0.02636
354.64 K, Closed cell (Static) method, Liquid	0.03047
356.61 K, Closed cell (Static) method, Liquid	0.0348
358.61 K, Closed cell (Static) method, Liquid	0.03975
360.51 K, Closed cell (Static) method, Liquid	0.04544
362.54 K, Closed cell (Static) method, Liquid	0.05195
364.52 K, Closed cell (Static) method, Liquid	0.05948
366.49 K, Closed cell (Static) method, Liquid	0.06748
368.46 K, Closed cell (Static) method, Liquid	0.07663

Conditions	Molar enthalpy of transition or fusion, Crystal 1 [kcal/mol]	Molar enthalpy of transition or fusion, Crystal 2 [kcal/mol]	Normal melting temperature, Crystal 1 [°C]	Triple point temperature, Crystal 2, DSC [K]
[1]	–	–	43.1	308.1
[2]	5.54	0.239	–	–
